According to US10300042B2, “Apremilast for the treatment of a liver disease or a liver function abnormality” (Celgene Corporation, priority 2014, dated 2019):

Columns and labels:
PDE2 = PDE2 (Homo sapiens, UniProt O00408); test: PDE2 enzyme assay; type: biochemical
Method: (§1) PDE1, 2, 3 and 5 enzyme assays were prepared as described by Hidaka and Asano. Biochem. Biophys. Acta., 1976, 429:485; see also Nicholsen et al., Trends Pharmaco. Sci., 1991, 12:19. The PDE6 enzyme assay was prepared according to Baehr et al., J. Biol. Chem., 1979, 254:11669 and Gillespie et al., Mol. Pharm., 1989, 36: 773. The PDE7 enzyme assay was prepared according to Bloom and Beavo. Proc. Natl. Acad. Sci. USA, 1996, 93:14188-92.

[1] = tested on: Aspartate Aminotransferase; test: AST levels in RA-002 (rheumatoid arthritis); type: in vivo, human; conditions: for AST High to Normal, percent of patients / AST Net Benefit / AST Normal to High, percent of patients: end of treatment (week 16); for AST High, % of patients / AST Low, % of patients / AST Normal, % of patients: Week 16
Method: The improvement in mild baseline liver function test abnormalities has been observed with apremilast daily use without any prescribed changes in physical activity, social or dietary habits. During the course of the study, there was observed a higher proportion of subjects in the 30 mg BID apremilast treatment group with normal LFTs at subsequent placebo-controlled study visits at week 16. See Tables 17 to 24 from RA-002 studies.

PDE6 = PDE6 enzyme assay; type: biochemical; conditions: at 10 μM
Method: as §1

[2] = tested on: Aspartate Aminotransferase; test: AST levels in PSA-005 (psoriatic arthritis); type: in vivo, human; conditions: for AST High to Normal, percent of patients / AST Net Benefit / AST Normal to High, percent of patients: end of treatment (week 24)
Excerpt: Apremilast was studied in a Phase 3 trial in patients with active psoriatic arthritis who have not been previously treated with disease-modifying antirheumatic drugs. […] The improvement in mild baseline liver function test abnormalities has been observed with apremilast daily use without any prescribed changes in physical activity, social or dietary habits. […] See Tables 25 to 34 from PSA-005 studies.

PDE4 = PDE4 enzyme inhibition (enzyme purified from U937 human monocytic cells); type: biochemical; conditions: 1 μM cAMP, 45 min at 30° C.
Method: Phosphodiesterase 4 enzyme was purified from U937 human monocytic cells by gel filtration chromatography, and phosphodiesterase reactions were carried out as previously described. See Muller et al., Bioorg. Med. Chem. Lett., 1998, 8(19): 2669-2674. Briefly, reactions were carried out in 96-well deep-well plates in 50 mM Tris HCl pH 7.5, 5 mM MgCl2, 1 μM cyclic adenosine monophosphate (cAMP), plus 10 nM [3H]-cAMP for 45 min at 30° C. The reactions were terminated by boiling, treated with 1 mg/ml snake venom, and separated using AG-1X8 ion exchange resin (BioRad). Reactions consumed less than 15% of available substrate.

TNF-α = test: Inhibition of TNF-α production in PBMCs; type: cell-based; conditions: PBMC
Excerpt: The test methods were as described in WO 03/080049; Muller et al., J. Med. Chem., 1996, 39:3238; and Muller et al., Bioorg. Med. Chem. Lett., 1999, 9:1625-30.

[3] = Baseline High, Week 24, 20 mg BID
[4] = Baseline High, Week 24, 30 mg BID
[5] = Baseline Normal, Week 24, 20 mg BID
[6] = Baseline Normal, Week 24, 30 mg BID
[7] = Baseline Total, Week 24, 20 mg BID
[8] = Baseline Total, Week 24, 30 mg BID

PDE2, sequence (O00408 whole entry): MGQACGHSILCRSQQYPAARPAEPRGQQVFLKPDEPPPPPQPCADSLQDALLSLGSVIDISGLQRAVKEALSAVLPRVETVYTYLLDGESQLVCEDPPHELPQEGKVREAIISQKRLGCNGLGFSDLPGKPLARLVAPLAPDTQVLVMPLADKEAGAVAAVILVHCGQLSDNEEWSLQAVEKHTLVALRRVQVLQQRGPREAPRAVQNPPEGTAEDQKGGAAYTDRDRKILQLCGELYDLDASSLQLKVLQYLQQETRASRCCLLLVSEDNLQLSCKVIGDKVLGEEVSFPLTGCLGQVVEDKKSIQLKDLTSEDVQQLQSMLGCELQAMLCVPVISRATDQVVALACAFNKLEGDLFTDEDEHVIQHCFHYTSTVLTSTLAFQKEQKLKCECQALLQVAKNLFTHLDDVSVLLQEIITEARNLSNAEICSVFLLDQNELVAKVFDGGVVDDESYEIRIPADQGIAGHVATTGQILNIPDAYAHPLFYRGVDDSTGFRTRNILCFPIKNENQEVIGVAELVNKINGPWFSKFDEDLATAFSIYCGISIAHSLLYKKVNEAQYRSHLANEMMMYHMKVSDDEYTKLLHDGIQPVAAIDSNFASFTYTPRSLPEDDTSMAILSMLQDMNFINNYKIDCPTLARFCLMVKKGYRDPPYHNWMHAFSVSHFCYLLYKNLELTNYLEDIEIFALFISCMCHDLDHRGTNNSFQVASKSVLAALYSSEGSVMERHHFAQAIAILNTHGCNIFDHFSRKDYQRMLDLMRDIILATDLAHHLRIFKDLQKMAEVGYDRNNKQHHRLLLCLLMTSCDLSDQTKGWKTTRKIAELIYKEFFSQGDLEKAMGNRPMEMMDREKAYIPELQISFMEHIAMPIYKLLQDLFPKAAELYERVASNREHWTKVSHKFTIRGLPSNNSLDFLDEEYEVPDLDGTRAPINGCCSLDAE

SMILES: CCOc1cc([C@@H](CS(C)(=O)=O)N2C(=O)c3cccc(NC(C)=O)c3C2=O)ccc1OC [Apremilast, (+)-2-[1-(3-ethoxy-4-methoxyphenyl)-2-methylsulfonylethyl]-4-acetylaminoisoindoline-1,3-dione]
- inhibition at 10 µM (PDE2): 6%
- AST High to Normal, percent of patients ([1]; 20 BID): 50.0%
- AST Net Benefit ([1]; 20 BID): 33.3%
- AST Normal to High, percent of patients ([1]; 20 BID): 3.0%
- AST High to Normal, percent of patients ([1]; 30 BID): 100.0%
- AST Net Benefit ([1]; 30 BID): 50.0%
- AST Normal to High, percent of patients ([1]; 30 BID): 4.7%
- AST High to Normal, Difference between Placebo and APR 30 BID ([1]; 30 BID, week 16): 50%
- AST Net Benefit, Difference between Placebo and APR 30 BID ([1]; 30 BID, week 16): 16.7%
- AST Normal to High, Difference between Placebo and APR 30 BID ([1]; 30 BID, week 16): 1.7%
- AST High to Normal, Difference between Placebo and APR 30 BID ([1]; 30 BID, week 16, listed as APR): 50.0%
- AST High, % of patients ([1]; Baseline High, 20 mg BID): 50.0%
- AST Low, % of patients ([1]; Baseline High, 20 mg BID): 0.0%
- AST Normal, % of patients ([1]; Baseline High, 20 mg BID): 50.0%
- AST High, % of patients ([1]; Baseline High, 30 mg BID): 0.0%
- AST Low, % of patients ([1]; Baseline High, 30 mg BID): 0.0%
- AST Normal, % of patients ([1]; Baseline High, 30 mg BID): 100.0%
- AST High, % of patients ([1]; Baseline Normal, 20 mg BID): 3.0%
- AST Low, % of patients ([1]; Baseline Normal, 20 mg BID): 0.0%
- AST Normal, % of patients ([1]; Baseline Normal, 20 mg BID): 97.0%
- AST High, % of patients ([1]; Baseline Normal, 30 mg BID): 4.7%
- AST Low, % of patients ([1]; Baseline Normal, 30 mg BID): 0.0%
- AST Normal, % of patients ([1]; Baseline Normal, 30 mg BID): 95.3%
- AST High, % of patients ([1]; Baseline Total, 20 mg BID): 5.7%
- AST Low, % of patients ([1]; Baseline Total, 20 mg BID): 0.0%
- AST Normal, % of patients ([1]; Baseline Total, 20 mg BID): 94.3%
- AST High, % of patients ([1]; Baseline Total, 30 mg BID): 4.5%
- AST Low, % of patients ([1]; Baseline Total, 30 mg BID): 0.0%
- AST Normal, % of patients ([1]; Baseline Total, 30 mg BID): 95.5%
- % inhibition PDE6 (PDE6): −6%
- AST High to Normal, percent of patients ([2]; 20 BID): 60.0%
- AST Net Benefit ([2]; 20 BID): 37.5%
- AST Normal to High, percent of patients ([2]; 20 BID): 2.0%
- AST High to Normal, percent of patients ([2]; 30 BID): 75.0%
- AST Net Benefit ([2]; 30 BID): 60.0%
- AST Normal to High, percent of patients ([2]; 30 BID): 2.1%
- AST High to Normal, Difference between Placebo and APR 30 BID ([2]; 30 BID, week 24): 25%
- AST Net Benefit, Difference between Placebo and APR 30 BID ([2]; 30 BID, week 24): 35.0%
- AST Normal to High, Difference between Placebo and APR 30 BID ([2]; 30 BID, week 24): −1.8%
- AST High to Normal, Difference between Placebo and APR 30 BID ([2]; 30 BID, week 24, listed as APR): 25.0%
- AST High, % of patients [2, 3]: 40.0%
- AST Low, % of patients [2, 3]: 0.0%
- AST Normal, % of patients [2, 3]: 60.0%
- AST High, % of patients [2, 4]: 25.0%
- AST Low, % of patients [2, 4]: 0.0%
- AST Normal, % of patients [2, 4]: 75.0%
- AST High, % of patients [2, 5]: 2.0%
- AST Low, % of patients [2, 5]: 0.0%
- AST Normal, % of patients [2, 5]: 98.0%
- AST High, % of patients [2, 6]: 2.1%
- AST Low, % of patients [2, 6]: 0.0%
- AST Normal, % of patients [2, 6]: 97.9%
- AST High, % of patients [2, 7]: 3.2%
- AST Low, % of patients [2, 7]: 0.0%
- AST Normal, % of patients [2, 7]: 96.8%
- AST High, % of patients [2, 8]: 3.9%
- AST Low, % of patients [2, 8]: 0.0%
- AST Normal, % of patients [2, 8]: 96.1%
- Baseline High AST: High % ([2]; Week 4, 20 mg BID): 71.4%
- Baseline High AST: Normal % ([2]; Week 4, 20 mg BID): 28.6%
- Baseline High AST: High % ([2]; Week 4, 30 mg BID): 50.0%
- Baseline High AST: Normal % ([2]; Week 4, 30 mg BID): 50.0%
- Baseline High AST: High % ([2]; Week 16, 20 mg BID): 20.0%
- Baseline High AST: Normal % ([2]; Week 16, 20 mg BID): 80.0%
- Baseline High AST: High % ([2]; Week 16, 30 mg BID): 41.7%
- Baseline High AST: Normal % ([2]; Week 16, 30 mg BID): 58.3%
- Baseline High AST: High % ([2]; Week 24, 20 mg BID): 40.0%
- Baseline High AST: Normal % ([2]; Week 24, 20 mg BID): 60.0%
- Baseline High AST: High % ([2]; Week 24, 30 mg BID): 25.0%
- Baseline High AST: Normal % ([2]; Week 24, 30 mg BID): 75.0%
- IC50 (PDE4): 73.5 nM
- IC50 (TNF-α): 77 nM
